Measured values from patent EP0641797A1, “Cephem derivatives and antimicrobial agents containing the same” (KATAYAMA SEIYAKUSYO CO. Ltd., priority 1993, dated 1995).
Converted amounts (≈) assume the structure as drawn.

Key:
Assay in all cases: MIC on standard strains, standard method of Japan Society of Chemotherapy
Format in all cases: cell-based
A. calcoaceticos T59 = details: read-out: MIC
Experimental: (§1) Antimicrobial activity of the compounds of the present invention were measured using CTM (cefotiam) and FMOX (flomoxef) as control drugs in accordance with the standard method of Japan Society of Chemotherapy. Of the 25 standard strains used in this test, Staphylococcus aureus 167 and Staphylococcus aureus 195 belong to MRSA.
(§2) In these tables, drugs tested are shown by the corresponding examples in which they were synthesized.

A. faecalis ATCC 3750 = details: Alcaligenes faecalis, ATCC3750, A. faecalis ATCC 3750; read-out: MIC
Experimental: as §1, §2

B. subtilis ATCC 6633 = details: Bacillus subtilis, ATCC6633, B. subtilis ATCC 6633; read-out: MIC
Experimental: as §1, §2

C. freundii ATCC 8090 = details: Citrobacter freundii, ATCC8090, C. freundii ATCC 8090; read-out: MIC
Experimental: as §1, §2

E. cloacae ATCC 13407 = details: Enterobacter cloacae, ATCC13407, E. cloacae ATCC 13407; read-out: MIC
Experimental: as §1, §2

E. cloacae Nek39 = details: Enterobacter cloacae, NEK39, E. cloacae Nek39; read-out: MIC
Experimental: as §1, §2

E. coli CSH2(RE45) = details: Escherichia coli
Experimental: as §1, §2

E. coli CSH2(RK1) = details: Escherichia coli
Experimental: as §1, §2

E. coli NHIJ JC-2 = details: Escherichia coli, NHIJJC2
Experimental: as §1, §2

K. pneuminiae IFO 3317 = test system: K. pneuminiae IFO 3317
Experimental: as §1, §2

K. pneuminiae No. 42 = test system: K. pneuminiae No. 42
Experimental: as §1, §2

M. luteus ATCC 9341 = details: Micrococcus luteus, ATCC9341
Experimental: as §1, §2

M. morganii IFO 3848 = details: Morganella morganii, IFO3848
Experimental: as §1, §2

P. aeruginosa AKR17 = details: Pseudomonas aeruginosa
Experimental: as §1, §2

P. aeruginosa NCTC 10490 = details: Pseudomonas aeruginosa, NCTC10490, P. aeruginosa NCTC 10490; read-out: MIC
Experimental: as §1, §2

P. cepacia = details: Burkholderia cepacia, read-out: MIC
Experimental: as §1, §2

P. mirabilis IFO 3849 = details: Proteus mirabilis, IFO3849, P. mirabilis IFO 3849; read-out: MIC
Experimental: as §1, §2

P. vulugaris OX-19 = test system: P. vulugaris OX-19
Experimental: as §1, §2

S. aureus 167 = details: Staphylococcus aureus; S. aureus 167 (MRSA)
Experimental: as §1, §2

S. aureus 195 = details: Staphylococcus aureus; S. aureus 195 (MRSA)
Experimental: as §1, §2

S. aureus 209p JC-1 = details: Staphylococcus aureus, 209P, read-out: MIC
Experimental: as §1, §2

S. aureus Smith = details: Staphylococcus aureus, read-out: MIC
Experimental: as §1, §2

S. epidemidis IAM 1296 = test system: S. epidemidis IAM 1296
Experimental: as §1, §2

S. marcescens IAM 1184 = details: Serratia marcescens, IAM1184, S. marcescens IAM 1184; read-out: MIC
Experimental: as §1, §2

S. marcescens No. 16-2 = details: Serratia marcescens, NO.162
Experimental: as §1, §2

Row | Compound | MIC (A. calcoaceticos T59) [µg/mL] | MIC (A. faecalis ATCC 3750) [µg/mL] | MIC (B. subtilis ATCC 6633) [µg/mL] | MIC (C. freundii ATCC 8090) [µg/mL] | MIC (E. cloacae ATCC 13407) [µg/mL] | MIC (E. cloacae Nek39) [µg/mL] | MIC (E. coli CSH2(RE45)) [µg/mL] | MIC (E. coli CSH2(RK1)) [µg/mL] | MIC (E. coli NHIJ JC-2) [µg/mL] | MIC (K. pneuminiae IFO 3317) [µg/mL] | MIC (K. pneuminiae No. 42) [µg/mL] | MIC (M. luteus ATCC 9341) [µg/mL] | MIC (M. morganii IFO 3848) [µg/mL] | MIC (P. aeruginosa AKR17) [µg/mL] | MIC (P. aeruginosa NCTC 10490) [µg/mL] | MIC (P. cepacia) [µg/mL] | MIC (P. mirabilis IFO 3849) [µg/mL] | MIC (P. vulugaris OX-19) [µg/mL] | MIC (S. aureus 167) [µg/mL] | MIC (S. aureus 195) [µg/mL] | other results
1 | Nc1nc(/C(=N/O)C(=O)N[C@@H]2C(=O)N3C(C(=O)[O-])=C(C[n+]4cccc(-c5ncno5)c4)CS[C@H]23)cs1 [Ex. 7, 7β-[2-(2-aminothiazol-4-yl)-2-syn-hydroxyiminoacetamido]-3-[3-(1,2,4-oxadiazol-5-yl)pyridinio]methyl-3-cephem-4-carboxylate] | 25 (≈ 47.3 µM) | 3.13 (≈ 5.92 µM) | 0.78 (≈ 1.48 µM) | 0.78 (≈ 1.48 µM) | 6.25 (≈ 11.8 µM) | 100 (≈ 189 µM) | 1.56 (≈ 2.95 µM) | 1.56 (≈ 2.95 µM) | 0.78 (≈ 1.48 µM) | 0.78 (≈ 1.48 µM) | 1.56 (≈ 2.95 µM) | 0.2 (≈ 0.378 µM) | 0.39 (≈ 0.738 µM) | > 100 | 6.25 (≈ 11.8 µM) | > 100 | 0.78 (≈ 1.48 µM) | 1.56 (≈ 2.95 µM) | 12.5 (≈ 23.7 µM) | 6.25 (≈ 11.8 µM) | MIC (S. aureus 209p JC-1): 0.39 µg/mL (≈ 0.738 µM); MIC (S. aureus Smith): 0.78 µg/mL (≈ 1.48 µM); MIC (S. epidemidis IAM 1296): 0.2 µg/mL (≈ 0.378 µM); MIC (S. marcescens IAM 1184): 0.78 µg/mL (≈ 1.48 µM); MIC (S. marcescens No. 16-2): > 100 µg/mL
2 | Nc1nc(/C(=N/O)C(=O)N[C@@H]2C(=O)N3C(C(=O)[O-])=C(C[n+]4ccc(-c5nccs5)cc4)CS[C@H]23)cs1 [Ex. 21, 7β-[2-(2-aminothiazol-4-yl)-2-syn-hydroxyiminoacetamido]-3-[4-(thiazol-2-yl)pyridinio]methyl-3-cephem-4-carboxylate] | 12.5 (≈ 23 µM) | 0.78 (≈ 1.43 µM) | 0.2 (≈ 0.368 µM) | 0.1 (≈ 0.184 µM) | 1.56 (≈ 2.87 µM) | 50 (≈ 92 µM) | 0.1 (≈ 0.184 µM) | 0.2 (≈ 0.368 µM) | 0.1 (≈ 0.184 µM) | 0.1 (≈ 0.184 µM) | 0.2 (≈ 0.368 µM) | 0.025 (≈ 0.046 µM) | 0.05 (≈ 0.092 µM) | > 100 | 6.25 (≈ 11.5 µM) | > 100 | 0.2 (≈ 0.368 µM) | 0.1 (≈ 0.184 µM) | 3.13 (≈ 5.76 µM) | 1.56 (≈ 2.87 µM) | MIC (S. aureus 209p JC-1): 0.2 µg/mL (≈ 0.368 µM); MIC (S. aureus Smith): 0.39 µg/mL (≈ 0.717 µM); MIC (S. epidemidis IAM 1296): 0.1 µg/mL (≈ 0.184 µM); MIC (S. marcescens IAM 1184): 0.1 µg/mL (≈ 0.184 µM); MIC (S. marcescens No. 16-2): 50 µg/mL (≈ 92 µM)
